In patent US12503484B2, “Androstane derivatives with activity as pure or predominantly pure stimulators of SERCA2a for the treatment of heart failure” (Seismic Pharmaceuticals, priority 2019, dated 2025):
Like-named read-outs stand apart in the source and are kept apart here. Marks after values point to notes of the source that are not given here.

Legend:
[1] = biological target: dog renal Na^+/K^+ ATPase (Canis lupus familiaris (Dog) (Canis familiaris), UniProt P50997); assay: biochemical; conditions: IC50 inhibition of dog renal Na+/K+ ATPase, purified dog kidney enzyme;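 note: enzyme preincubated with inhibitor 10 min at 37 °C, then K^+ and ^32P-ATP added for 15 min, released ^32P counted, activity relative to untreated control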
[2] = biological target: SERCA2a (Cavia porcellus, UniProt A0A286XD73); assay: SERCA2a ATPase activity in heart-derived SR microsomes from normal guinea-pig; assay type: biochemical
Protocol: SERCA2a ATPase Activity in Heart-Derived SR Microsomes from Normal Quinea-Pig
SERCA2a activity was measured in vitro as ^32P-ATP hydrolysis at different Ca^2+ concentrations (100-4000 nM) in the absence and presence of the tested compounds, as described (Micheletti R. et al., Am J Card 2007, 99:24A-32A). Increasing concentrations of each compound (ranging from 1 to 200 nM) were pre-incubated with 2 μg of SERCA2a enriched microsomes for 5 min at 4° C. in 80 μl of a solution containing 100 mM KCl, 5 mM MgCl2, 1 μM A23187, 20 mM Tris, pH 7.5. […] SERCA2a-dependent activity was identified as the portion of total hydrolytic activity inhibited by 10 μM cyclopiazonic acid (Seidler N W et al., J Biol Chem. 1989, 264:17816-23).
Dose-response curves were fitted by using a sigmoidal equation and the activity at the maximal velocity (Vmax) and the Kd for Ca^2+ were calculated (Synergy Software KaleidaGraph 3.6). The effect of the compounds in normal guinea-pig preparations was expressed as % decrease of Kd Ca^2+ (implying an increase of affinity for Ca^2+) of a control sample run in the absence of compound (Table 2). […] Data are mean±SD, n=number of experiments, *at least p<0.05.

[3] = read-out: Kd Ca2+ (nM) mean ± SD, compound 1 nM
[4] = read-out: Kd Ca2+ (nM) mean ± SD, compound 10 nM
[5] = read-out: Kd Ca2+ (nM) mean ± SD, compound 100 nM
[6] = read-out: Kd Ca2+ (nM) mean ± SD, compound 200 nM

Chain of SERCA2a (A0A286XD73 1-997): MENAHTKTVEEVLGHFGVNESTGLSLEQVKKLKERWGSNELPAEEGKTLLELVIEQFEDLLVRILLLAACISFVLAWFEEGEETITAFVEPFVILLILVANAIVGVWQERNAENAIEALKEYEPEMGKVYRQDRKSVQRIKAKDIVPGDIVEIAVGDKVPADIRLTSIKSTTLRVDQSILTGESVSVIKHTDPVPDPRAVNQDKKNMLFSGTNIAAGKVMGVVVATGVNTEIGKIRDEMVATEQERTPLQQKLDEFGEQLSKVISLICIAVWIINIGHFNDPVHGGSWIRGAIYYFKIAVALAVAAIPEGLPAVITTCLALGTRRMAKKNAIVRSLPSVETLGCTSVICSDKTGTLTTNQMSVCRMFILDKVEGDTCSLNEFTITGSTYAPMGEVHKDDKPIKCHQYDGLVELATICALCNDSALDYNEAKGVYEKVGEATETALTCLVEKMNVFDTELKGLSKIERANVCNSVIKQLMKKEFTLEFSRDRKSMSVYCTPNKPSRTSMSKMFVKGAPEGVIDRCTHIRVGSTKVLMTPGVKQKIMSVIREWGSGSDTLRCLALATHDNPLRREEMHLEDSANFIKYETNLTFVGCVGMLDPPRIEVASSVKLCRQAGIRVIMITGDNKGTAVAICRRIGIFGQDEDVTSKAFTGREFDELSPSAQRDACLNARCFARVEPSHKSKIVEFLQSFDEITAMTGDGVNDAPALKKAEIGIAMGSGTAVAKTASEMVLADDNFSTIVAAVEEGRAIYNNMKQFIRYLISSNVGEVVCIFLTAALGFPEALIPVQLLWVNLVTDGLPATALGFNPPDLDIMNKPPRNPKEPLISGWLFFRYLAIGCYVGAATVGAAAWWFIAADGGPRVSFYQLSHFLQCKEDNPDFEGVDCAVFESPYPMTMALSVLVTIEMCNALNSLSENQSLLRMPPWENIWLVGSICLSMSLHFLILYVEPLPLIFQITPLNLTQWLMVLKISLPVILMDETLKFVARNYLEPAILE

With CCOC(=O)CCC[C@H]1CC[C@]2(C)C3CC[C@]4(C)C(=O)CCC4C3C[C@H](O)C2C1 (stereo partly drawn) [CVie217, 4-(6alpha-hydroxy-17-oxoandrostane-3-yl) ethylbutiroate] the IC50 [1] was > 100000 nM, the “% change in Ca2+ Kd vs control (negative = decrease)” value (from here on “% change … (negative = decrease)”) ([2]; compound 1 nM) was −20% and the “% change … (negative = decrease)” value ([2]; compound 10 nM) was −24.7%*. The “% change … (negative = decrease)” value ([2]; compound 100 nM) was −20%*, the “% change … (negative = decrease)” value ([2]; compound 200 nM) was −29.4%* and the Kd [2, 3] was 763 ± 103 nM. It also gave a Kd [2, 4] of 719 ± 142 nM, a Kd [2, 5] of 764 ± 120 nM and a Kd [2, 6] of 674 ± 150 nM.

With CCOC(=O)CCCCC[C@H]1CC[C@]2(C)C3CC[C@]4(C)C(=O)CCC4C3C[C@H](O)C2C1 (some centres unmarked) [CVie218] the IC50 [1] was > 100000 nM, the “% change … (negative = decrease)” value ([2]; compound 1 nM) was −3% and the “% change … (negative = decrease)” value ([2]; compound 10 nM) was −7%*. The “% change … (negative = decrease)” value ([2]; compound 100 nM) was −19.1%*, the “% change … (negative = decrease)” value ([2]; compound 200 nM) was −15%* and the Kd [2, 3] was 705 ± 88.8 nM. It also gave a Kd [2, 4] of 677 ± 13.8 nM, a Kd [2, 5] of 587 ± 50.5 nM and a Kd [2, 6] of 619 ± 48 nM.

In the case of C[C@]12CC[C@H](CCC3CNC3)CC1[C@@H](CO)C(=O)C1C2CC[C@]2(C)C(=O)CCC12 (some centres unmarked) [CVie407], the IC50 [1] is reported as 3500 nM, the “% change … (negative = decrease)” value ([2]; compound 100 nM) is reported as −8.9% and the “% change … (negative = decrease)” value ([2]; compound 200 nM) is reported as 0%. For the same molecule, the Kd [2, 5] was 390 ± 91.4 nM and the Kd [2, 6] was 428 ± 87.3 nM.

With C[C@]12CC[C@H](CCC3CNC3)CC1[C@@H](CO)[C@@H](O)C1C2CC[C@]2(C)C(=O)CCC12 (some centres unmarked) [CVie408] the IC50 [1] was 3300 nM, the “% change … (negative = decrease)” value ([2]; compound 100 nM) was −20.7%* and the “% change … (negative = decrease)” value ([2]; compound 200 nM) was −21%*. The Kd [2, 5] was 356 ± 33.8 nM and the Kd [2, 6] was 355 ± 66.9 nM.

With C[C@]12CC[C@H](CCC3CCNCC3)CC1[C@@H](CO)C(=O)[C@@H]1[C@@H]2CC[C@]2(C)C(=O)CC[C@@H]12 (stereo partly drawn) [CVie411, 3beta-[2-(piperidin-4-yl)ethyl]-6alpha-hydroxymethylandrostane-7,17-dione] the IC50 [1] was 1900 nM, the “% change … (negative = decrease)” value ([2]; compound 100 nM) was 0% and the Kd ([2]; compound 100 nM, read-out: Kd Ca2+ (nM) mean ± SD) was 428 ± 76.6 nM. The “% change … (negative = decrease)” value ([2]; compound 200 nM) was −4.9% and the Kd ([2]; compound 200 nM, read-out: Kd Ca2+ (nM) mean ± SD) was 407 ± 111 nM.

With C[C@]12CC[C@H](CCC3CCNCC3)CC1[C@@H](CO)[C@@H](O)[C@@H]1[C@@H]2CC[C@]2(C)C(=O)CC[C@@H]12 (stereo partly drawn) [CVie412, 3beta-[2-(piperidin-4-yl)ethyl]-6alpha-hydroxymethyl-7alpha-hydroxyandrostane-17-one] the IC50 [1] was 3000 nM, the “% change … (negative = decrease)” value ([2]; compound 100 nM) was −19.1% and the “% change … (negative = decrease)” value ([2]; compound 200 nM) was −19.6%*. The Kd [2, 5] was 363 ± 74.1 nM and the Kd [2, 6] was 361 ± 76.3 nM.
